Patent US20130095059A1, “INHALED NO DONOR KMUPS DERIVATIVE PREVENTING ALLERGIC PULMONARY VASCULAR AND BRONCHIAL INFLAMMATION VIA SUPPRESSED CYTOKINES, INOS AND INFLAMMATORY CELL COUNTS IN ASTHMA MODEL” (priority 2007, published 2013)

Legend:
NO = assay: Nitric oxide production in HPAEC (Griess); assay type: cell-based, human; details: 10 μM, 24 h before adding 5-HT
Procedure: Production of NO in HPAEC was determined using the Griess method. The three step Greiss test converts nitrate (NO3^−) into nitrite (NO2^−) giving a total NO2^− concentration from a standard calibration curve. HPAEC were incubated with or without KMUP-1 (10 μM) for 24 h and then incubated with 5-HT (10 μmol/L) for 30 min. Media samples from HPAEC were taken and the NO concentration was determined. Six independent experiments were carried out and data are reported as the mean mean±SEM.

PASMCs [1] = assay: Cell migration (wound) assay of PASMCs; assay type: cell-based, Wistar rats; details: 10-100 μM; 5-HT 10 μM 24 h
Procedure: Migration of PASMCs was assessed using a wound assay model in which cells grown to confluence on 6 well dishes were scraped with the edge of a fine razor. The wound edge was viewed and photographed under a microscope (Nikon, Tokyo, Japan) before and after culture for 24 h in serum-free DMEM in the presence of 5HT (10 μM). The distance the cells migrated from the wound surface was then manually measured.

PASMCs [2] = assay: Microculture tetrazolium test (MTT), PASMCs proliferation; assay type: cell-based, Wistar rats; details: 1-100 μM; 5-HT 10 μM 24 h
Procedure: At the end of this period, MTT (2 g/L) was added to each well, and incubation proceeded at 37° C. for 4 h. Thereafter, the medium was removed and the cells were solubilized in 150 μL DMSO.

eNOS = assay: Expression of eNOS in HPAEC; assay type: cell-based, human
Procedure: HPAEC purchased from ATCC were maintained in humidified incubator containing 5% CO2 at 37° C. HPAEC were cultured in F-12 supplemented with 10% fetal bovine serum. The culture medium was changed every 3 days and cells were subcultured until confluence. HPAEC were harvested with a solution of trypsin-EDTA (GIBCO BRL, NY, USA) while in a logarithmic phase of growth. HPAEC were used between passages 4-8.
To measure the expression of eNOS and 5-HT2B receptor in HPAEC after incubation with KMUP-1 (1-100 μM) for 24 h, whole lysates were collected for Western blotting assay. The relative density was determined using NIH imaging software.

AKT = assay: 5-HT-induced AKT phosphorylation in PASMCs; assay type: cell-based, Wistar rats; details: 1-100 μM, 24 h pre-incubation
Procedure: (§1) PASMCs were stimulated with 5-HT or not, as indicated. Cells were treated with KMUP-1 for 24 h before 5-HT stimulation. Whole lysates were collected and resolved by SDS-PAGE as previously described. Primary antibodies were anti-β-actin at: 1:10,000 dilution and anti-RhoA, anti-ROCK, antiphospho-ERK1/2, anti-phospho-AKT, anti-ERK1/2, anti-AKT, anti-5HTT, anti-5-HT2B and anti-eNOS at 1:1000. All blots were incubated with antibodies at 4° C. overnight. After being washed, the appropriate secondary antibodies were added at a dilution of 1:1000 for 1 h at room temperature. After extensive washing, blots were developed with a Super Signal enhanced chemiluminescence kit (Biorad, CA, USA) and visualized on Kodak AR film.
(§2) The expression of RhoA/ROCK and phosphorylation of ERK1/2 and AKT kinase in PASMCs were assessed by incubating the PASMCs with 5-HT (10 μM) for 15 min (peak time for RhoA/ROCK, ERK1/2 and AKT phosphorylation) and 5-HTT for 10 min (peak time for 5-HTT) after KMUP-1 (1-100 μM) was added to the culture of PASMCs for 24 h.

IL-5 = assay: Ovalbumine model, plasma IL-5 (ELISA); assay type: in vivo, mice; details: mice sensitized and challenged by ovalbumine
Procedure: In this long-term experiment, 6-8 week old BALB/c female mice were sensitized on days 1 and 8 by intra-peritoneal injection (i.p.) of ovalbumine (10 μg) (Sigma-Aldrich, Schnelldorf, Germany) adsorbed to 2 mg aluminum hydroxide (AlumInject; Perbio, Erembodegem, Belgium). Mice were divided into three groups. In Group 1, a control group was only exposed to saline nebulization by aerosol. The other 2 groups were subjected to ovalbumine (1%) nebulization. Before each challenge with ovalbumine, mice were either exposed to saline nebulization (Group 2) or KMUP-1 nebulization (5 mM) for 30 min by aerosol (Group 3).

MMP-9 = assay: Short term nebulization, MMP-9 expression in lung tissues; assay type: in vivo, BALB/c mice; details: nebulization 1.0˜2.5 mM, 30 mins, without ovalbumine sensitization
Procedure: […] […] […] Three different experiments were performed on cohorts of 7˜14 mice per experimental condition.
The lung tissues were homogenized, washed with PBS and incubated in lysis buffer in addition to a protease inhibitor cocktail (Sigma, St. Louis, Mo.) to obtain extracts of lung proteins. A Western blot analysis was performed as described previously (Wu B N, et al., 2006). The samples were loaded to 10% SDS-PAGE gels and were separated at 120 V for 90 min. The blots were incubated with anti-eNOS antibody diluted at a ratio of 1:500, anti-sGCα1 antibody diluted at a ratio of 1:2000, anti-PKG antibody diluted at a ratio of 1:500, anti-VCAM-1 antibody diluted at a ratio of 1:500, anti-ICAM-1 antibody diluted at a ratio of 1:500, and anti-MMP-9 antibody diluted at a ratio of 1:600 overnight at 4° C. The membranes were stripped and re-blotted with anti-actin antibody (Sigma, St. Louis, Mo.) to verify the equal loading of protein in each lane.

5-HT2A receptor = target: T1, 5-HT2A receptor (Homo sapiens, UniProt P28223); assay: Displacement of radioligand binding, 5-HT2A; details: [^3H]-ketanserin, human recombinant CHO-K1 cells
T1 construct: full length clones of 5-HT2A, 5-HT2B and 5-HT2C receptor were prepared from CHO-K1 cells; expressed in transfected cells; host or cells: CHO-K1
T1 sequence (P28223 whole entry): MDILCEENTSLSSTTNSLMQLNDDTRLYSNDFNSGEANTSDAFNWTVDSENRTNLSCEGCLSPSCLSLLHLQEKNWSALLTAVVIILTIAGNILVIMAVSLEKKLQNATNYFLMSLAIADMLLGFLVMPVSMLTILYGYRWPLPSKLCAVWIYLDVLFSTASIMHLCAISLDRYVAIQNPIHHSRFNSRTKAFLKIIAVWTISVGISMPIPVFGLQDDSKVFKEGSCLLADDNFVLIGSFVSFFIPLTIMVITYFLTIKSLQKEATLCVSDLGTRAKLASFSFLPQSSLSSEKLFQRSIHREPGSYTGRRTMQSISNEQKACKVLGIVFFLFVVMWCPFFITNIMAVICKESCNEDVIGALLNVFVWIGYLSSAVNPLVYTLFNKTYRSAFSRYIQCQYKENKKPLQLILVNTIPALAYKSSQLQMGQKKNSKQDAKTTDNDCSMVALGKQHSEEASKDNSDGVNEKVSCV
Procedure: Displacement of Radioligand Binding Assay
As described previously, full length clones of 5-HT2A, 5-HT2B and 5-HT2C receptor were prepared from CHO-K1 cells. […] IC50 represents the concentration of competing ligand which displaces 50% of the specific binding of the radioligand. Ki values for competition curves were calculated using the Cheng-Prusoff equation (Cheng, 2001).

ROCK = assay: 5-HT-induced ROCK expression in PASMCs; assay type: cell-based, Wistar rats; details: 1-100 μM, 24 h
Procedure: as §1, §2

Cn1c(=O)c2c(ncn2CCN2CCN(c3ccccc3Cl)CC2)n(C)c1=O [KMUP-1, 7-[2-[4-(2-chlorophenyl)piperazinyl]ethyl]-1,3-dimethylxanthine]
release of NO compared to 5-HT treatment alone (NO): raised | 5-HT-induced PASMCs migration (PASMCs [1]): concentration-dependently suppressed | PASMCs proliferation (MTT assay) (PASMCs [2]): dose-dependently inhibited | expression of eNOS compared to 5-HT treatment alone (eNOS; 10 μM, 24 h before adding 5-HT): raised | eNOS expression in cultured HPAEC (eNOS; 1-100 μM, 24 h): dose-dependently increased | 5-HT-stimulated AKT phosphorylation (AKT): concentration-dependently reduced | IL-5 levels in the plasma (IL-5): inhibited | MMP-9 expression in mice lung tissues (MMP-9): decreased | IC50 (5-HT2A receptor): 340 nM | Ki (5-HT2A receptor; Cheng-Prusoff): 97.1 nM | 5-HT-induced ROCK (ROCK): significantly inhibited
